Experimental findings from patent publication US12202861B2, “Inducible, tunable, and multiplex human gene regulation using CRISPR-Cpf1” (The General Hospital Corporation, priority 2017, dated 2025) are described below.

Common to all, as to format: cell-based, human
One data set relates to NPY1R. Description: RT-qPCR activation of endogenous NPY1R gene promoter in HEK293 cells. The conditions noted are these: single crRNA. On the procedure: (§1) FIGS. 1A-1E. Targeted human endogenous gene regulation using individual crRNAs with dLbCpf1-based activators • (A) Schematic showing direct dLbCpf1-VPR and dLbCpf-p65 activator fusion proteins. • (B) Activities of dLbCpf1-p65 or dLbCpf1-VPR using single crRNAs at three endogenous human genes (HBB, AR, and NPY1R) in human HEK293 cells. Relative activation of the indicated gene promoters was measured by RT-qPCR. Three separate individual crRNAs were targeted within promoter sequence 1 kb upstream of the transcription start site for each gene. Relative mRNA expression is calculated by comparison to the control sample in which no crRNA is expressed. (C) Analysis of various crRNAs targeted to the human CD5 and CD22 promoters. 32 crRNAs (16 for each gene) were designed to target sites located within promoter sequences 1 kb upstream or 500 bps downstream of the TSS of each gene. Repetitive sequences were not targeted. After 72 hours post-transfection, cells were stained with fluorescently labeled antibody for CD5 or CD22 protein and fluorescent-positive cells were quantified by flow cytometry. Error bars represent s.e.m. for three biological replicates. […] (D) Schematic illustrating drug-inducible bi-partite dLbCpf1-based activator fusion proteins. dLbCpf1 is fused to one to four DmrA domains and VPR or p65 is fused to a DmrC domain. Because DmrA and DmrC interact only in the presence of an A/C-heterodimerizer drug (red diamond), the bi-partite activator is only reconstituted in the presence of the drug. (E) Activities of drug-inducible bi-partite dLbCpf1-based activators using single crRNAs at three endogenous human genes (HBB, AR, and NPY1R) in human HEK293 cells. Relative activation of the indicated gene promoters was measured by RT-qPCR. […] Data shown in (B) and (E) represent three biological independent replicates and error bars indicate standard deviation (SD) of three technical replicates.
(§2) (A) Schematic of an expression cassette designed to express multiple gRNAs encoded on a single transcript. The arrows indicate cleavage sites being processed by the RNase activity of dLbCpf1. (B) Schematic illustrating multiplex expression of three crRNAs each targeted to a different endogenous gene promoter in a single cell. (C) Simultaneous activation of three endogenous human genes using crRNAs expressed from a multiplex transcript or from individual transcripts with dLbCpf1-VPR direct fusions (left panel), dLbCpf1-DmrA(×4) and DmrC-VPR fusions (middle panel), and dLbCpf1-DmrA(×4) and DmrC-p65 fusions (right panel). Transcripts were measured in HEK293 cells using RT-qPCR with relative mRNA expression calculated by comparison to the control sample in which no crRNA is expressed. (D) Activities of MST crRNA with different dLbCpf1-based activators in human U20S cells. Graphs showing activation of three endogenous human genes with dLbCpf1-VPR direct fusions, dLbCpf1-DmrA(×4) and DmrC-p65 fusions, and dLbCpf1-DmrA(×4) and DmrC-VPR fusions and crRNAs expressed from a multiplex single transcript (MST) or from transcripts encoding a single crRNA. RNA expression was measured by RT-qPCR and relative expression shown was calculated by comparison to a control sample in which no crRNA is expressed. (E) Schematic illustrating multiplex expression of three crRNAs each targeted to the same endogenous gene promoter in the same cell. (F) Activities of direct dLbCpf1-p65 or dLbCpf1-VPR fusions with sets of three crRNAs expressed from a multiplex transcript or from individual transcripts on the HBB, AR, or NPY1R endogenous gene promoters. Transcripts were measured in HEK293 cells using RT-qPCR with relative mRNA expression calculated by comparison to the control sample in which no crRNA is expressed. (G) Activities of dLbCpf1-DmrA(×4) and DmrC-VPR fusions or with dLbCpf1-DmrA(×4) and DmrC-p65 fusions with sets of three crRNAs expressed from a multiplex transcript or from individual transcripts on the HBB, AR, or NPY1R endogenous gene promoters. […]
(In general: Quantitative PCR measures a nucleic acid by following its amplification.)

The next data set concerns AR. Kind of data set: RT-qPCR activation of endogenous AR gene promoter in HEK293 cells. The conditions noted are these: bi-partite, with dLbCpf1 fusions harboring two, three or four DmrA domains, single crRNA. As for the experimental part:
as §1
(A) Schematic of an expression cassette designed to express multiple gRNAs encoded on a single transcript. The arrows indicate cleavage sites being processed by the RNase activity of dLbCpf1. (B) Schematic illustrating multiplex expression of three crRNAs each targeted to a different endogenous gene promoter in a single cell. […] Transcripts were measured in HEK293 cells using RT-qPCR with relative mRNA expression calculated by comparison to the control sample in which no crRNA is expressed. […] RNA expression was measured by RT-qPCR and relative expression shown was calculated by comparison to a control sample in which no crRNA is expressed. […] Transcripts were measured in HEK293 cells using RT-qPCR with relative mRNA expression calculated by comparison to the control sample in which no crRNA is expressed. […]

Another data set concerns HBB. Kind of data set: RT-qPCR activation of endogenous HBB gene promoter in HEK293 cells. The conditions noted are these: single crRNA. On the procedure:
as §1, §2

In another data set the test system is HBB, AR, and NPY1R. Kind of data set: Simultaneous (multiplex) activation of three endogenous genes in HEK293 cells, RT-qPCR. The settings on record: multiplex transcript vs single crRNA, HEK293, across the dLbCpf1-based activators. The source says: (A) Schematic of an expression cassette designed to express multiple gRNAs encoded on a single transcript. The arrows indicate cleavage sites being processed by the RNase activity of dLbCpf1. (B) Schematic illustrating multiplex expression of three crRNAs each targeted to a different endogenous gene promoter in a single cell. (C) Simultaneous activation of three endogenous human genes using crRNAs expressed from a multiplex transcript or from individual transcripts with dLbCpf1-VPR direct fusions (left panel), dLbCpf1-DmrA(×4) and DmrC-VPR fusions (middle panel), and dLbCpf1-DmrA(×4) and DmrC-p65 fusions (right panel). Transcripts were measured in HEK293 cells using RT-qPCR with relative mRNA expression calculated by comparison to the control sample in which no crRNA is expressed. […] RNA expression was measured by RT-qPCR and relative expression shown was calculated by comparison to a control sample in which no crRNA is expressed. […] Transcripts were measured in HEK293 cells using RT-qPCR with relative mRNA expression calculated by comparison to the control sample in which no crRNA is expressed. […] Transcripts were measured in HEK293 cells using RT-qPCR with relative mRNA expression calculated by comparison to the control sample in which no crRNA is expressed. […] Cells were collected at various time points and relative mRNA expression levels were measured by RT-qPCR compared to a negative control. […]

The mark [1] stands for this setting: bi-partite with dLbCpf1-DmrA fusions.
[2] abbreviates: bi-partite, with dLbCpf1 fusions harboring two, three or four DmrA domains.

Turning to “DmrC-VPR: CAG-DmrC-NLS-FLAG-VPR; DmrC dimerization domain fused to VPR activator (SEQ ID NO: 49)”, the “dependence of maximal activation on A/C heterodimerizer drug” value with NPY1R (setting [1]) and in the data set with HBB (setting [1]) was “dependent on the presence of the A/C heterodimerizer drug” each time. Also, the “maximum level of activation relative to direct dLbCpf1-VPR fusions” value in the data set on NPY1R (setting [1]) and with HBB (setting [1]) was “approximately half” throughout. The values for the activation of transcription entry with NPY1R (setting [2]), in the data set on AR and in the data set on HBB (setting [2]) were “activation”, “lack of an effect” and “activation”, respectively.

B1: multiplex crRNAs: three LbCpf1 crRNAs (HBB, AR, NPY1R) encoded on a single U6-driven transcript (SEQ ID NO: 58) (nucleic acid)
guide: GAGGGCCTATTTCCCATGATTCCTTCATATTTGCATATACGATACAAGGCTGTTAGAGAGATAATTAGAATTAATTTGACTGTAAACACAAAGATATTAGTACAAAATACGTGACGTAGAAAGTAATAATTTCTTGGGTAGTTTGCAGTTTTAAAATTATGTTTTAAAATGGACTATCATATGCTTACCGTAACTTGAAAGTATTTCGATTTCTTGGCTTTATATATCTTGTGGAAAGGACGAAACACCGAATTTCTACTAAGTGTAGATTACTGATGGTATGGGGCCAAAATTTCTACTAAGTGTAGATCTCTAGGAACCCTCAGCCCCAATTTCTACTAAGTGTAGATAAGCCTCGGGAAACTGCCCTAATTTCTACTAAGTGTAGATTTTTTTT
modifications: misc_feature 1..397 crRNAs from Figure 2b
On to B1, for which the “magnitude of activation somewhat lower than with expression of a single crRNA” value in the data set with HBB, AR, and NPY1R lay in the range of 18 to 55%.
